Patent US8574563B2 (Bristol-Myers Squibb Company, priority 2006, dated 2013)

Tested on: HCV 1b-377-neo replicon cells
Test: HCV replicon assay, HCV 1b-377-neo replicon cells (1b FRET)
Assay type: cell-based, Hepatitis C virus genotype 1b
Conditions: HCV 1b-377-neo replicon cells; HCV 1b genotype; read-out: EC50 range against HCV 1b (Table 2, Range)
Procedure, shortened: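 Compounds tested in HCV genotype 1b-377-neo replicon cells with a FRET read-out. Cells resistant to a reference NS5A inhibitor through a Y2065H NS5A mutation were run alongside wild-type cells.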

SMILES | EC50
CCN(CC)[C@@H](C(=O)N1CCC[C@H]1c1ncc(-c2ccc(-c3ccc(-c4cnc([C@@H]5CCCN5C(=O)C5(NC(=O)OC)CC5)[nH]4)cc3)cc2)[nH]1)c1ccccc1 [Example M33, methyl (1-(((2S)-2-(5-(4′-(2-((2S)-1-((2R)-2-(diethylamino)-2-phenylacetyl)-2-pyrrolidinyl)-1H-imidazol-5-yl)-4-biphenylyl)-1H-imidazol-2-yl)-1-pyrrolidinyl)carbonyl)cyclopropyl) carbamate] | 1 to 99 nM
COC(=O)N[C@@H](C(=O)N1CCC[C@H]1c1ncc(-c2ccc(-c3ccc(-c4cnc([C@@H]5CCCN5C(=O)c5ccncc5)[nH]4)cc3)cc2)[nH]1)c1ccccc1 [Example 69, methyl ((1R)-2-((2S)-2-(5-(4′-(2-((2S)-1-isonicotinoyl-2-pyrrolidinyl)-1H-imidazol-5-yl)-4-biphenylyl)-1H-imidaozl-2-yl)-1-pyrrolidinyl)-2-oxo-1-phenylethyl)carbamate] | 0.001 to 0.999 nM
CN(C)[C@@H](C(=O)N1CCC[C@H]1c1nc(-c2ccc(-c3ccc(-c4cn(C)c([C@@H]5CCCN5C(=O)[C@@H](c5ccccc5)N(C)C)n4)cc3)cc2)cn1C)c1ccccc1 (single isomer, unassigned) [151 isomer 2] | 100 to 999 nM

Same assay, conditions: Hepatitis C virus, HCV 1b-377-neo replicon cells; HCV 1b genotype; read-out: EC50 range against HCV 1b (Table 2, Range)

SMILES | EC50
CN(C)[C@@H](C(=O)N1CCC[C@H]1c1ncc(-c2ccc(-c3ccc(-c4cnc([C@@H]5CCCN5C(=O)Cc5ccccc5F)[nH]4)cc3)cc2)[nH]1)c1ccccc1 [Example 94-51, (1R)-2-((2S)-2-(5-(4′-(2-((2S)-1-((2-fluorophenyl)acetyl)-2-pyrrolidinyl)-1H-imidazol-5-yl)-4-biphenylyl)-1H-imidazol-2-yl)-1-pyrrolidinyl)-N,N-dimethyl-2-oxo-1-phenylethanamine] | 0.001 to 0.999 nM
CN(C)[C@@H](C(=O)N1CCC[C@H]1c1ncc(-c2ccc(-c3ccc(-c4cnc([C@@H]5CCCN5C(=O)[C@@H](c5ccccc5)N5CCCCC5)[nH]4)cc3)cc2)[nH]1)c1ccccc1 [Example 28-1, (1R)—N,N-dimethyl-2-oxo-1-phenyl-2-((2S)-2-(5-(4′-(2-((2S)-1-((2R)-2-phenyl-2-(1-piperidinyl)acetyl)-2-pyrrolidinyl)-1H-imidazol-5-yl)-4-biphenylyl)-1H-imidazol-2-yl)-1-pyrrolidinyl)ethanamine] | 0.001 to 0.999 nM
CCCN(CCC)[C@@H](C)C(=O)N1CCC[C@H]1c1ncc(-c2ccc(-c3ccc(-c4cnc([C@@H]5CCCN5C(=O)[C@@H](NC(=O)OC)C(C)C)[nH]4)cc3)cc2)[nH]1 [Example M84, methyl ((1S)-1-(((2S)-2-(5-(4′-(2-((2S)-1-(N,N-dipropyl-L-alanyl)-2-pyrrolidinyl)-1H-imidazol-5-yl)-4-biphenylyl)-1H-imidazol-2-yl)-1-pyrrolidinyl)carbonyl)-2-methylpropyl)carbamate] | 1 to 99 nM
COC(=O)N[C@@H](C(=O)N1CCC[C@H]1c1ncc(-c2ccc(-c3ccc(-c4cnc([C@@H]5CCCN5C(=O)C5CCOC5)[nH]4)cc3)cc2)[nH]1)c1ccccc1 (stereo partly drawn) [Example 74, methyl ((1R)-2-oxo-1-phenyl-2-((2S)-2-(5-(4′-(2-((2S)-1-(tetrahydro-3-furanylcarbonyl)-2-pyrrolidinyl)-1H-imidazol-5-yl)-4-biphenylyl)-1H-imidazol-2-yl)-1-pyrrolidinyl)ethyl)carbamate] | 0.001 to 0.999 nM
COC(=O)N[C@H](C(=O)N1C[C@H](O)C[C@H]1c1ncc(-c2ccc(-c3ccc(-c4cnc([C@@H]5C[C@@H](O)CN5C(=O)[C@@H](NC(=O)OC)C(C)C)[nH]4)cc3)cc2)[nH]1)C(C)C [JG-5, methyl ((1S)-1-(((2S,4R)-4-hydroxy-2-(5-(4′-(2-((2S,4R)-4-hydroxy-1-((2S)-2-((methoxycarbonyl)amino)-3-methylbutanoyl)-2-pyrrolidinyl)-1H-imidazol-5-yl)-4-biphenylyl)-1H-imidazol-2-yl)-1-pyrrolidinyl)carbonyl)-2-methylpropyl)carbamate] | 0.001 to 0.999 nM
O=C(c1ccc(N2CCOCC2)cc1)N1CCC[C@H]1c1ncc(-c2ccc(-c3ccc(-c4cnc([C@@H]5CCCN5C(=O)[C@@H](c5ccccc5)N5CCCCC5)[nH]4)cc3)cc2)[nH]1 [Example 107-10, 4-(4-(((2S)-2-(5-(4′-(2-((2S)-1-((2R)-2-phenyl-2-(1-piperidinyl)acetyl)-2-pyrrolidinyl)-1H-imidazol-5-yl)-4-biphenylyl)-1H-imidazol-2-yl)-1-pyrrolidinyl)carbonyl)phenyl) morpholine] | 0.001 to 0.999 nM
CC[C@H](C(=O)N1CCC[C@H]1c1ncc(-c2ccc(-c3ccc(-c4cnc([C@@H]5CCCN5C(=O)[C@H](NC(=O)OC)c5ccccc5)[nH]4)cc3)cc2)[nH]1)N(CC)CC [Example M66x, methyl ((1R)-2-((2S)-2-(5-(4′-(2-((2S)-1-((2R)-2-(diethylamino)butanoyl)-2-pyrrolidinyl)-1H-imidazol-5-yl)-4-biphenylyl)-1H-imidazol-2-yl)-1-pyrrolidinyl)-2-oxo-1-phenylethyl)carbamate] | 1 to 99 nM
CN1C[C@H](F)C[C@H]1C(=O)N[C@@H](C(=O)N1CCC[C@H]1c1ncc(-c2ccc(-c3ccc(-c4cnc([C@@H]5CCCN5C(=O)[C@@H]5CCCO5)[nH]4)cc3)cc2)[nH]1)c1ccccc1 [Example 116, (4R)-4-fluoro-1-methyl-N-((1R)-2-oxo-1-phenyl-2-((2S)-2-(5-(4′-(2-((2S)-1-((2S)-tetrahydro-2-furanylcarbonyl)-2-pyrrolidinyl)-1H-imidazol-5-yl)-4-biphenylyl)-1H-imidazol-2-yl)-1-pyrrolidinyl)ethyl)-L-prolinamide] | 0.001 to 0.999 nM
COC(=O)N[C@@H](C(=O)N1CSC[C@H]1c1ncc(-c2ccc(-c3ccc(-c4cnc([C@@H]5CSCN5C(=O)[C@H](NC(=O)OC)c5ccccc5)[nH]4)cc3)cc2)[nH]1)c1ccccc1 [Example 149, dimethyl (4,4′-biphenyldiylbis(1H-imidazole-5,2-diyl(4R)-1,3-thiazolidine-4,3-diyl((1R)-2-oxo-1-phenyl-2,1-ethanediyl)))biscarbamate] | 0.001 to 0.999 nM
CN(C)[C@@H](C(=O)N1CCC[C@H]1c1ncc(-c2ccc(-c3ccc(-c4cnc([C@@H]5CCCN5C(=O)Cc5cccnc5)[nH]4)cc3)cc2)[nH]1)c1ccccc1 [Example 85, (1R)-N,N-dimethyl-2-oxo-1-phenyl-2((2S)-2-(5-(4′-(2-((2S)-1-(3-pyridinylacetyl)-2-pyrrolidinyl)-1H-imidazol-5-yl)-4-biphenylyl)-1H-imidazol-2-yl)-1-pyrrolidinyl)ethanamine] | 0.001 to 0.999 nM
COC(=O)N[C@@H](C(=O)N1CCC[C@H]1c1ncc(-c2ccc(-c3ccc(-c4cnc([C@@H]5CCCN5C(=O)c5ncco5)[nH]4)cc3)cc2)[nH]1)c1ccccc1 [Example 71, methyl ((1R)-2-((2S)-2-(5-(4′-(2-((2S)-1-(1,3-oxazol-2-ylcarbonyl)-2-pyrrolidinyl)-1H-imidazol-5-yl)-4-biphenylyl)-1H-imidazol-2-yl)-1-pyrrolidinyl)-2-oxo-1-phenylethyl)carbamate] | 0.001 to 0.999 nM
COC(=O)N[C@@H](C(=O)N(C)[C@@H](C)c1ncc(-c2ccc(-c3ccc(-c4cnc([C@@H]5CCCN5C(=O)[C@@H](c5ccccc5)N5CCCCC5)[nH]4)cc3)cc2)[nH]1)c1ccccc1 [Example 131.1-2, methyl ((1R)-2-(methyl((1S)-1-(5-(4′-(2-((2S)-1-((2R)-2-phenyl-2-(1-piperidinyl)acetyl)-2-pyrrolidinyl)-1H-imidazol-5-yl)-4-biphenylyl)-1H-imidazol-2-yl)ethyl)amino)-2-oxo-1-phenylethyl)carbamate] | 0.001 to 0.999 nM
CC(C)(C)OC(=O)N1CCC(C)(C(=O)N2CCC[C@H]2c2ncc(-c3ccc(-c4ccc(-c5cnc([C@@H]6CCCN6C(=O)[C@@H](c6ccccc6)N6CCCCC6)[nH]5)cc4)cc3)[nH]2)CC1 [Example 107-14, tert-butyl 4-methyl-4-(((2S)-2-(5-(4′-(2-((2S)-1-((2R)-2-phenyl-2-(1-piperidinyl)acetyl)-2-pyrrolidinyl)-1H-imidazol-5-yl)-4-biphenylyl)-1H-imidazol-2-yl)-1-pyrrolidinyl)carbonyl)-1-piperidinecarboxylate] | 0.001 to 0.999 nM
CCN(CC)[C@@H](C(=O)N1CCC[C@H]1c1ncc(-c2ccc(-c3ccc(-c4cnc([C@@H]5CCCN5C(=O)N5CCOCC5)[nH]4)cc3)cc2)[nH]1)c1ccccc1 [Example M51, (1R)-N,N-diethyl-2-((2S)-2-(5-(4′-(2-((2S)-1-(4-morpholinylcarbonyl)-2-pyrrolidinyl)-1H-imidazol-5-yl)-4-biphenylyl)-1H-imidazol-2-yl)-1-pyrrolidinyl)-2-oxo-1-phenylethanamine] | 1 to 99 nM
O=C(Nc1cccnc1)N[C@@H](C(=O)N1CCC[C@H]1c1ncc(-c2ccc(-c3ccc(-c4c[nH]c([C@@H]5CCCN5C(=O)[C@H]5CCCO5)n4)cc3)cc2)[nH]1)c1ccccc1 [Example 120-9, 1-((1R)-2-oxo-1-phenyl-2-((2S)-2-(5-(4′-(2-((2S)-1-((2R)-tetrahydro-2-furanylcarbonyl)-2-pyrrolidinyl)-1H-imidazol-4-yl)-4-biphenylyl)-1H-imidazol-2-yl)-1-pyrrolidinyl)ethyl)-3-(3-pyridinyl)urea] | 0.001 to 0.999 nM
CN[C@H](C(=O)N1CCC[C@H]1c1nc(-c2ccc(-c3ccc(-c4cnc([C@@H]5CCCN5C(=O)[C@@H](NC)C(C)C)[nH]4)cc3)cc2)c[nH]1)C(C)C [Example F34, (2S)-N,3-dimethyl-1-((2S)-2-(4-(4′-(2-((2S)-1-((2S)-3-methyl-2-(methylamino)butanoyl)-2-pyrrolidinyl)-1H-imidazol-5-yl)-4-biphenylyl)-1H-imidazol-2-yl)-1-pyrrolidinyl)-1-oxo-2-butanamine] | 1 to 99 nM
COC(=O)N[C@@H](C(=O)N1CCC[C@H]1c1ncc(-c2ccc(-c3ccc(-c4cnc([C@@H]5CCCN5C(=O)[C@H](NC(=O)OC)C(C)C)[nH]4)cc3)cc2)[nH]1)C(C)C [Example 26, methyl ((1R)-1-(((2S)-2-(5-(4′-(2-((2S)-1-((2R)-2-((methoxycarbonyl)amino)-3-methylbutanoyl)-2-pyrrolidinyl)-1H-imidazol-5-yl)-4-biphenylyl)-1H-imidazol-2-yl)-1-pyrrolidinyl)carbonyl)-2-methylpropyl)carbamate] | 1 to 99 nM
